In brackets after ≈: the same amount, converted by molar mass. One block for each compound: values may come before it.
Key:
Test in all cases: ≥ marks a high value that may be exact or a test limit, other limits are often not marked, values filed in µg/mL are converted to µM
[1] = system: Staphylococcus aureus CUN 3792-99
[2] = system: Staphylococcus aureus ATCC 25923
[3] = system: Acinetobacter baumannii ATCC 19606
[4] = system: Staphylococcus aureus ATCC 43300
[5] = system: Bordetella bronchiseptica CUN 11844-99
[6] = system: Pseudomonas aeruginosa CUN 4158-02
[7] = system: Stenotrophomonas maltophilia CUN 3998-00
[8] = system: Escherichia coli ATCC 25922
[9] = system: Pseudomonas aeruginosa ATCC 27853
[10] = system: Methylobacterium sp.
[11] = system: Agrobacterium tumefaciens GV3101
[12] = system: Xanthomonas citri
[13] = system: Candida glabrata ATCC 2001
[14] = system: Escherichia coli ATCC 25726
[15] = system: Klebsiella pneumoniae ATCC 13883
[16] = system: Staphylococcus aureus Newman
[17] = system: Candida albicans ATCC 90028
[18] = system: Staphylococcus aureus MU50
[19] = system: Staphylococcus aureus USA 300
[20] = system: Bacillus subtilis 168
[21] = system: Pseudomonas aeruginosa PAO1
[22] = system: Staphylococcus epidermidis 1457
[23] = system: Candida tropicalis ATCC 13803
[24] = system: Staphylococcus aureus USA 200
[25] = system: Candida albicans ATCC 10231
[26] = system: Staphylococcus aureus USA 400
[27] = system: Staphylococcus aureus UAMS-1
[28] = system: Staphylococcus aureus PTCC 1431
[29] = system: Klebsiella pneumoniae PTCC 1388
[30] = system: Escherichia coli HP101BA 7601c
[31] = system: Micrococcus luteus PTCC 1625

- MIC [1]: 22 µM (≈ 64 µg/mL)
- MIC [2]: 22 µM (≈ 64 µg/mL)
- MIC [3]: 22 µM (≈ 64 µg/mL)
- MIC [4]: 11 µM (≈ 32 µg/mL)
- MIC [5]: 11 µM (≈ 32 µg/mL)
- MIC [6]: ≥ 44 µM
- MIC [7]: 22 µM (≈ 64 µg/mL)
- MIC [8]: 44 µM (≈ 128 µg/mL)
- MIC [9]: 44 µM (≈ 128 µg/mL)
SMILES: NCCCC[C@H](NC(=O)CNC(=O)[C@H](CCCN=C(N)N)NC(=O)[C@H](Cc1ccc(O)cc1)NC(=O)[C@H](CCCN=C(N)N)NC(=O)[C@H](Cc1c[nH]c2ccccc12)NC(=O)[C@H](CCCN=C(N)N)NC(=O)[C@H](Cc1ccccc1)NC(=O)[C@H](CCCCN)NC(=O)[C@H](CCCCN)NC(=O)[C@H](Cc1c[nH]c2ccccc12)NC(=O)[C@H](CCCN=C(N)N)NC(=O)[C@H](CCCN=C(N)N)NC(=O)[C@H](CS)NC(=O)CN)C(=O)N[C@@H](Cc1ccccc1)C(=O)N[C@@H](Cc1c[nH]c2ccccc12)C(=O)N[C@@H](Cc1ccccc1)C(=O)N[C@@H](Cc1c[nH]c2ccccc12)C(=O)N[C@@H](CS)C(=O)NCC(N)=O [GCRRWKKFRWRYRGKFWFWCG]

- MIC [10]: 9 µM (≈ 16.8 µg/mL)
- MIC [11]: 17 µM (≈ 31.7 µg/mL)
- MIC [12]: 4 µM (≈ 7.46 µg/mL)
SMILES: CC[C@H](C)[C@H](N)C(=O)N[C@@H](Cc1ccccc1)C(=O)NCC(=O)N[C@@H](C)C(=O)N[C@H](C(=O)N[C@@H](CC(C)C)C(=O)N1CCC[C@H]1C(=O)N[C@@H](CC(C)C)C(=O)N[C@@H](C)C(=O)N[C@@H](CC(C)C)C(=O)NCC(=O)N[C@@H](C)C(=O)N[C@@H](CC(C)C)C(=O)N[C@@H](CCCCN)C(=O)N[C@@H](CC(N)=O)C(=O)N[C@@H](CC(C)C)C(=O)N[C@H](C(=O)N[C@@H](CCCCN)C(=O)O)[C@@H](C)CC)[C@@H](C)CC [IFGAILPLALGALKNLIK]

- MIC [13]: 12.5 µM (≈ 18.8 µg/mL)
- MIC [14]: 25 µM (≈ 37.5 µg/mL)
- MIC [15]: ≥ 50 µM
- MIC [16]: 25 µM (≈ 37.5 µg/mL)
- MIC [17]: 25 µM (≈ 37.5 µg/mL)
- MIC [18]: 25 µM (≈ 37.5 µg/mL)
- MIC [2]: 50 µM (≈ 75.1 µg/mL)
- MIC [19]: 25 µM (≈ 37.5 µg/mL)
- MIC [20]: ≥ 50 µM
- MIC [21]: > 50 µM
- MIC [22]: 12.5 µM (≈ 18.8 µg/mL)
- MIC [23]: 4.38 µM (≈ 6.58 µg/mL)
- MIC [24]: 25 µM (≈ 37.5 µg/mL)
- MIC [25]: 25 µM (≈ 37.5 µg/mL)
- MIC [8]: 12.5 µM (≈ 18.8 µg/mL)
- MIC [26]: 25 µM (≈ 37.5 µg/mL)
- MIC [27]: 25 µM (≈ 37.5 µg/mL)
SMILES: CC[C@H](C)[C@H](N)C(=O)N1CCC[C@H]1C(=O)N1CCC[C@H]1C(=O)N[C@@H](Cc1ccccc1)C(=O)N[C@H](C(=O)N[C@@H](CCCCN)C(=O)N[C@@H](CCCCN)C(=O)N[C@H](C(=O)N[C@@H](CC(C)C)C(=O)N[C@H](C(=O)N[C@H](C(=O)N[C@H](C(=O)N[C@@H](Cc1ccccc1)C(N)=O)C(C)C)[C@@H](C)O)[C@@H](C)O)C(C)C)[C@@H](C)CC [IPPFIKKVLTTVF]

- MIC [28]: 5.3 µM (≈ 12.4 µg/mL)
- MIC [29]: 7.3 µM (≈ 17.1 µg/mL)
- MIC [30]: 6.4 µM (≈ 15 µg/mL)
- MIC [31]: 4.7 µM (≈ 11 µg/mL)
SMILES: CC(C)C[C@H](NC(=O)[C@H](C)NC(=O)[C@H](CC(N)=O)NC(=O)[C@H](CC(C)C)NC(=O)[C@@H](N)Cc1ccccc1)C(=O)N[C@@H](CCCCN)C(=O)N[C@@H](CC(N)=O)C(=O)N[C@@H](Cc1ccccc1)C(=O)N[C@@H](C)C(=O)N[C@@H](CCCCN)C(=O)N[C@H](C(=O)N[C@@H](C)C(=O)NCC(=O)N[C@@H](CCCCN)C(=O)N[C@@H](CCCN=C(N)N)C(=O)N[C@@H](CC(C)C)C(=O)N[C@@H](CCCCN)C(=O)N[C@@H](CO)C(=O)N[C@@H](CC(C)C)C(=O)N[C@@H](CC(C)C)C(=O)N[C@@H](CC(N)=O)C(=O)O)[C@@H](C)O [FLNALKNFAKTAGKRLKSLLN]

Reference: DBAASP
